Legend:
Format in all cases: in vivo
Kochia (Kochia scoparia) [1] = experiment: Test A preemergence
Method in brief: (§1)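 Treatment is preemergence as a directed soil spray after planting, or postemergence at the one- to two-leaf stage, with test chemical in a non-phytotoxic solvent mixture plus surfactant. Plants stay in the greenhouse about 10 d before visual injury scoring on a 0 to 100 scale versus untreated controls.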

[2] = tested on: barnyardgrass (Echinochloa crus-galli); experiment: Test A preemergence
Method in brief: as §1

[3] = tested on: giant foxtail (Setaria faberii); experiment: Test A preemergence
Method in brief: as §1

[4] = tested on: pigweed (Amaranthus retroflexus); experiment: Test A preemergence
[5] = tested on: ragweed (common ragweed, Ambrosia elatior); experiment: Test A preemergence
Method in brief: as §1

[6] = tested on: ryegrass, Italian (Italian ryegrass, Lolium multiflorum); experiment: Test A preemergence
Method in brief: as §1

[7] = tested on: Galium (catchweed bedstraw, Galium aparine); experiment: Test A postemergence
Method in brief: as §1

Kochia (Kochia scoparia) [8] = experiment: Test A postemergence
Method in brief: as §1

[9] = tested on: barnyardgrass (Echinochloa crus-galli); experiment: Test A postemergence
Method in brief: as §1

[10] = tested on: blackgrass (Alopecurus myosuroides); experiment: Test A postemergence
Method in brief: as §1

corn (Zea mays) = experiment: Test A postemergence
Method in brief: as §1

[11] = tested on: giant foxtail (Setaria faberii); experiment: Test A postemergence
Method in brief: as §1

[12] = tested on: pigweed (Amaranthus retroflexus); experiment: Test A postemergence
Method in brief: as §1

[13] = tested on: ragweed (common ragweed, Ambrosia elatior); experiment: Test A postemergence
Method in brief: as §1

[14] = tested on: ryegrass, Italian (Italian ryegrass, Lolium multiflorum); experiment: Test A postemergence
Method in brief: as §1

[15] = tested on: wheat (Triticum aestivum); experiment: Test A postemergence
Method in brief: as §1

[16] = tested on: barnyardgrass (Echinochloa crus-galli); experiment: Test B flooded paddy test; conditions: Flood, 0 to 100 scale where 0 is no effect and 100 is complete control, 13 to 15 d
Method in brief: (§2)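 Rating scale 0–100 (visual, vs untreated controls) after a 13–15 d greenhouse period; application to the flood layer, 3 cm above soil and maintained; plants at 2-leaf stage when treated.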

[17] = tested on: ducksalad (Heteranthera limosa); experiment: Test B flooded paddy test; conditions: Flood, 0 to 100 scale where 0 is no effect and 100 is complete control, 13 to 15 d
Method in brief: as §2

rice (Oryra sativa) = experiment: Test B flooded paddy test; conditions: Flood, 0 to 100 scale where 0 is no effect and 100 is complete control, 13 to 15 d
Method in brief: as §2

[18] = tested on: sedge, umbrella (small-flower umbrella sedge, Cyperus difformis); experiment: Test B flooded paddy test; conditions: Flood, 0 to 100 scale where 0 is no effect and 100 is complete control, 13 to 15 d
Method in brief: as §2

[19] = tested on: lambsquarters (Chenopodium album); experiment: Test C preemergence; conditions: for Plant response rating (scale of 0 to 100), Lambsquarters: 31 g ai/ha, 0 is no effect, 100 is complete control; for Plant response rating, Lambsquarters: scale 0 to 100, 0 no effect, 100 complete control
Method in brief: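 After treatment with surfactant-containing formulations, either preemergence to seeds in loam-sand soil or postemergence to potted seedlings at 2–18 cm, plants were kept 13–15 d in a greenhouse. Observers then compared them with controls and assigned ratings, 0 signifying no effect and 100 complete control.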

[20] = 125 g ai/ha, Preemergence, visual injury after approximately 10 d, 0 to 100 scale where 0 is no effect and 100 is complete control
[21] = 500 g ai/ha, preemergence, 0 to 100 scale, 0 = no effect, 100 = complete control
[22] = 125 g ai/ha, postemergence, visual rating after approx. 10 d, 0 to 100 scale (0 no effect, 100 complete control)
[23] = Postemergence, 500 g ai/ha, 0 to 100 scale where 0 is no effect and 100 is complete control
[24] = 500 g ai/ha, postemergence, visual injury, 0 to 100 scale (0 no effect, 100 complete control), approx. 10 d

Compound	Plant response rating, Kochia (Kochia (Kochia scoparia) [1]; [20])	Plant response rating, Kochia (Kochia (Kochia scoparia) [1]; [21])	Plant response rating, Barnyardgrass [2, 20]	Plant response rating, Barnyardgrass [2, 21]	Plant response rating, Foxtail, Giant [3, 20]	Plant response rating, Foxtail, Giant [3, 21]	Plant response rating, Pigweed [4, 20]	Plant response rating, Pigweed [4, 21]	Plant response rating, Ragweed [5, 20]	Plant response rating, Ragweed [5, 21]	Plant response rating, Ryegrass, Italian [6, 20]	Plant response rating, Ryegrass, Italian [6, 21]	Plant response rating, Galium [7, 22]	Plant response rating, Kochia (Kochia (Kochia scoparia) [8]; [22])	Plant response rating, Barnyardgrass [9, 22]	Plant response rating, Blackgrass [10, 22]	Plant response rating, Corn (corn (Zea mays); [22])	Plant response rating, Foxtail, Giant [11, 22]	Plant response rating, Pigweed [12, 22]	Plant response rating, Ragweed [13, 22]	also measured
CN1CC(c2cccc(OC(F)F)c2)C(C(=O)Nc2cccc(F)c2F)C1=O (stereo not drawn) [Compound 616]	70	80	90	90	90	100	80	90	80	80	80	90	60	50	90	50	70	90	40	0	Plant response rating, Galium [7, 23]: 70; Plant response rating, Kochia (Kochia (Kochia scoparia) [8]; [23]): 70; Plant response rating, Barnyardgrass [9, 23]: 90; Plant response rating, Blackgrass [10, 23]: 60; Plant response rating, Corn (corn (Zea mays); [23]): 80; Plant response rating, Foxtail, Giant [11, 23]: 90; Plant response rating, Pigweed [12, 23]: 60; Plant response rating, Ragweed [13, 23]: 20; Plant response rating, Ryegrass, Italian [14, 22]: 50; Plant response rating, Ryegrass, Italian [14, 23]: 80; Plant response rating, Wheat [15, 22]: 60; Plant response rating, Wheat [15, 23]: 70; Plant response rating, Barnyardgrass ([16]; 250 g ai/ha): 70; Plant response rating, Ducksalad ([17]; 250 g ai/ha): 100; Plant response rating, Rice (rice (Oryra sativa); 250 g ai/ha): 10; Plant response rating, Sedge, Umbrella ([18]; 250 g ai/ha): 0; Plant response rating (scale of 0 to 100), Lambsquarters [19]: 25; Plant response rating, Lambsquarters ([19]; 62 g ai/ha): 35; Plant response rating, Lambsquarters ([19]; 125 g ai/ha): 70; Plant response rating, Lambsquarters ([19]; 250 g ai/ha): 60
O=C1NCC(c2ccc3c(c2)OC(F)(F)O3)C1C(=O)Nc1cccc(F)c1F (stereo not drawn) [Compound 635]	60	60	90	90	90	90	60	70	40	50	20	30	40	60	80	40	40	90	60	0	Plant response rating, Galium [7, 24]: 60; Plant response rating, Kochia (Kochia (Kochia scoparia) [8]; [24]): 80; Plant response rating, Barnyardgrass [9, 23]: 90; Plant response rating, Blackgrass [10, 23]: 70; Plant response rating, Corn (corn (Zea mays); [23]): 70; Plant response rating, Foxtail, Giant [11, 24]: 90; Plant response rating, Pigweed [12, 24]: 80; Plant response rating, Ragweed [13, 24]: 40; Plant response rating, Ryegrass, Italian [14, 22]: 0; Plant response rating, Ryegrass, Italian [14, 24]: 30; Plant response rating, Wheat [15, 22]: 20; Plant response rating, Wheat [15, 24]: 40; Plant response rating, Barnyardgrass ([16]; 500 g ai/ha): 60; Plant response rating, Ducksalad ([17]; 500 g ai/ha): 100; Plant response rating, Rice (rice (Oryra sativa); 500 g ai/ha): 10; Plant response rating, Sedge, Umbrella ([18]; 500 g ai/ha): 0; Plant response rating (scale of 0 to 100), Lambsquarters [19]: 40; Plant response rating, Lambsquarters ([19]; 62 g ai/ha): 40; Plant response rating, Lambsquarters ([19]; 125 g ai/ha): 80; Plant response rating, Lambsquarters ([19]; 250 g ai/ha): 85
CN1CC(c2ccc(F)c(F)c2)C(C(=O)Nc2ccccc2C(F)(F)F)C1=O (stereo not drawn) [Compound 641]	20	50	90	0	90	100	20	50	0	60	20	60	40	0	90	30	0	90	0	0	Plant response rating, Galium [7, 24]: 50; Plant response rating, Kochia (Kochia (Kochia scoparia) [8]; [24]): 20; Plant response rating, Barnyardgrass [9, 24]: 90; Plant response rating, Blackgrass [10, 24]: 60; Plant response rating, Corn (corn (Zea mays); [24]): 50; Plant response rating, Foxtail, Giant [11, 24]: 90; Plant response rating, Pigweed [12, 24]: 20; Plant response rating, Ragweed [13, 24]: 20; Plant response rating, Ryegrass, Italian [14, 22]: 0; Plant response rating, Ryegrass, Italian [14, 24]: 40; Plant response rating, Wheat [15, 22]: 0; Plant response rating, Wheat [15, 24]: 30; Plant response rating, Barnyardgrass ([16]; 250 g ai/ha): 70; Plant response rating, Ducksalad ([17]; 250 g ai/ha): 100; Plant response rating, Rice (rice (Oryra sativa); 250 g ai/ha): 0; Plant response rating, Sedge, Umbrella ([18]; 250 g ai/ha): 0; Plant response rating (scale of 0 to 100), Lambsquarters [19]: 0; Plant response rating, Lambsquarters ([19]; 62 g ai/ha): 40; Plant response rating, Lambsquarters ([19]; 125 g ai/ha): 40; Plant response rating, Lambsquarters ([19]; 250 g ai/ha): 65

Reference: US12077503B2, “Substituted cyclic amides and their use as herbicides” (FMC CORPORATION, priority 2015, dated 2024)
